# How the values were obtained:
# Type in all cases: in vivo, C57BL/6J male mice
# [1] = system: MK-801 treated mice; assay: Open field, MK-801-induced hyper-locomotion
# Method: Each mouse in Groups 2-6 received an acute administration of MK-801 (Sigma-Aldrich, USA) dissolved in normal saline, 0.1 mg/kg, i.p.) 20 minutes prior to the behavioral tests. Each mouse in Groups 3-6 received an acute administration of tannic acids (Sigma-Aldrich, USA; dissolved in PBS, 10, 15, 20 or 30 mg/kg, i.p.) 20 minutes prior to the MK-801 administration.
# (§1) Each mouse in Groups 2-5 received an acute administration of MK-801 (Sigma-Aldrich, USA) dissolved in normal saline, 0.1 mg/kg for open field and Barnes maze tasks, and 0.2 mg/kg for prepulse inhibition and sucrose preference tasks by i.p. injection) 20 minutes prior to the behavioral tests. Each mouse in Groups 3-6 received an acute oral administration of tannic acids (Merck Millipore, Germany; dissolved in PBS, 10, 30, or 100 mg/kg, p.o.) 20 minutes prior to the MK-801 administration.
# Each mouse in Groups 2-5 received an acute administration of 0.2 mg/kg MK-801 (Sigma-Aldrich, USA) dissolved in normal saline by i.p. injection 20 minutes prior to the locomotion activity test. […]
# The open field task is a common measurement of novelty induced exploratory behavior and general activity in both mice and rats. […] Their spontaneous locomotor activities were measured for 30 minutes using the SMART video tracking system (Panlab, Harvard Apparatus). The travel distance of each mouse was measured as an index of locomotion activity.
# [2] = system: MK-801 treated mice; assay: Prepulse inhibition in MK-801-treated mice
# [3] = system: MK-801 treated mice; assay: Sucrose preference (anhedonia) in MK-801 treated mice; details: MK-801 alone 0.2 mg/kg i.p.
# Method: as §1
# Sucrose preference test has been commonly examined in mouse models of several mental illnesses, including, but not limited to, depression, major depression disorder, anhedonia, negative symptoms of schizophrenia, chronic mild and unpredictable stress (see Anderson et al., 2006; Carvalho et al., 2013; Briones et al., 2011; Der-Avakian and Markou, 2012; Tye et al., 2013; Edwards and Koob, 2012; Brigman et al., 2010; Koo and Duman, 2007; Nestler and Hyman, 2010; Overstreet, 2012; Papp et al., 1991; Santiago et al., 2010; Skalisz et al., 2002; Szczypka et al., 2001; Taylor et al., 2010; Vardigan et al., 2010; Willner et al., 1987; You et al., 2011).
compound,measurement,setting,value
"C[C@]12N[C@H](Cc3ccccc31)c1ccccc12 [MK-801, dizocilpine]",locomotion activity vs control group,[1]; MK-801 alone 0.1 mg/kg i.p. (Example 3),hyper-locomotion activity
same,locomotion activity vs control group,[1]; MK-801 alone 0.2 mg/kg i.p. (Example 9),hyper-locomotion activity
same,prepulse inhibition vs control group,[2]; MK-801 alone 0.2 mg/kg i.p. (Example 4),robust prepulse inhibition deficits
same,prepulse inhibition vs control group,"[2]; MK-801 alone 0.3 mg/kg i.p., all prepulse intensities (Example 9)",robust prepulse inhibition deficits
same,preference toward the sucrose solution (2%) vs control group,[3],did not show the preference toward the sucrose solution
